Values after ≈ are worked out from the molar mass of the structure shown. Where a SMILES comes first, the peptide text is derived from it. Bridges are numbered along the chain shown (N, C = ends). Roman numbers before positions name the chains, in order. [ ]: non-standard residue; d: D form. NMeDab = CN[C@@H](CCN)C(=O)O; dDab = NCC[C@@H](N)C(=O)O; Dab = NCC[C@H](N)C(=O)O; Abu = CC[C@H](N)C(=O)O; Dap = NC[C@H](N)C(=O)O
Experiments:
[1] = tested on: human red blood cells (hRBC); assay: Hemolysis; assay type: cell-based; conditions: red cells of human, 1 h, 200
In short: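 Washed fresh human RBC (20% v/v) incubated with peptide at 200 μg/mL for 1 h at 37° C with shaking. Supernatant OD540 measured after dilution, blank corrected; percent hemolysis = OD540 peptide / OD540 of 2% Triton X-100 lysis × 100, PBS with 10% water as 0%.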

male ICR mice = assay: Tolerability in a mouse model (Maximum Tolerated Dose assay); assay type: in vivo; conditions: 2 × 40 mg/kg s.c. at a 12-hr interval, groups of 3
In short: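 Peptides in 0.9% NaCl (pH 6.5-7.6) given s.c. at 30 or 40 mg/kg, twice 12 h apart, to groups of 3 male ICR mice (23±3 g). Acute toxic signs (mortality, convulsions, tremors, sedation) and autonomic effects (diarrhea, salivation, piloerection) observed for 30 min after each dose.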

[2] = tested on: Acinetobacter baumannii DSM 30008; assay type: cell-based; conditions: DSM 30008
In short: (§1)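 Broth microdilution per CLSI; MH-II (cation-adjusted) + 0.002% P-80 final; ~10^6 CFU/mL inoculum; 2-fold peptide series; 35° C, 18-20 h; MIC = no visible growth, μg/mL.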

Escherichia coli 926415 = assay type: cell-based; conditions: 926415
In short: as §1

[3] = tested on: Escherichia coli ATCC 25922; assay type: cell-based; conditions: ATCC 25922
In short: as §1

[4] = tested on: Klebsiella pneumoniae SSI #3010; assay type: cell-based; conditions: SSI #3010
In short: as §1

[5] = tested on: Enterobacter cloacae 848840; assay type: cell-based; conditions: 848840
In short: as §1

[6] = tested on: Klebsiella pneumoniae 968733; assay type: cell-based; conditions: 968733
In short: as §1

[7] = tested on: Acinetobacter baumannii 872842; assay type: cell-based; conditions: 872842
In short: as §1

[8] = tested on: Pseudomonas aeruginosa ATCC 27853; assay type: cell-based; conditions: ATCC 27853
In short: as §1

SMILES | Hemolysis at 200 μg/mL [1] | Mortality and dose (male ICR mice) | Acinetobacter baumannii DSM 30008 MIC [2] | MIC (Escherichia coli 926415) | Escherichia coli ATCC 25922 MIC [3] | Klebsiella pneumoniae SSI #3010 MIC [4] | MIC [5] | MIC [6] | MIC [7] | Pseudomonas aeruginosa ATCC 27853 MIC [8]
CC(=O)N[C@H](C(=O)N[C@H]1CSSC[C@@H](C(=O)N[C@@H](CO)C(N)=O)NC(=O)[C@H](C(C)C)NC(=O)[C@H](CO)NC(=O)[C@H](Cc2c[nH]c3ccccc23)NC(=O)[C@H](CO)NC(=O)[C@@H](CCN)NC(=O)[C@H](CCC(=O)N(C)[C@@H](CCN)C(=O)N[C@H](C(=O)N[C@@H](CN)C(=O)N[C@H]2CCNC(=O)[C@H]([C@@H](C)O)NC(=O)[C@H](CCN)NC(=O)[C@H](CCN)NC(=O)[C@H](CC(C)C)NC(=O)[C@@H](CC(C)C)NC(=O)[C@H](CCN)NC2=O)[C@@H](C)O)NC(=O)[C@H](CCN)NC(=O)[C@H](Cc2ccc(O)cc2)NC1=O)C(C)C [Ex. 311] (I: Ac-VCY[Dab]E[dDab]SWSVCS-NH2 / II: [NMeDab]T[Dap][Dab][Dab][dL]L[Dab][Dab]T; disulfide I:2-I:11; amide I:5-II:N; lactam II:4-II:C) | <1% | 0/3 died at 2 × 40 mg/kg | 0.0625 µg/mL | 0.25 µg/mL (≈ 0.104 µM) | 0.0625 µg/mL | 0.0625 µg/mL | 0.125 µg/mL (≈ 0.0518 µM) | 0.125 µg/mL (≈ 0.0518 µM) | 0.125 µg/mL (≈ 0.0518 µM) | 0.25 µg/mL
CC(=O)N[C@H](C(=O)N[C@H]1CSSC[C@@H](C(=O)N[C@@H](CO)C(N)=O)NC(=O)[C@H](C(C)C)NC(=O)[C@H](CO)NC(=O)[C@H](Cc2c[nH]c3ccccc23)NC(=O)[C@H](CO)NC(=O)[C@@H](CCN)NC(=O)[C@H](CCC(=O)N[C@@H](CCN)C(=O)N[C@H](C(=O)N[C@@H](CN)C(=O)N[C@H]2CCNC(=O)[C@H]([C@@H](C)O)NC(=O)[C@H](CCN)NC(=O)[C@H](CCN)NC(=O)[C@H]([C@@H](C)O)NC(=O)[C@@H](CC(C)C)NC(=O)[C@H](CCN)NC2=O)[C@@H](C)O)NC(=O)[C@H](CCN)NC(=O)[C@H](Cc2ccc(O)cc2)NC1=O)C(C)C [Ex. 331] (I: Ac-VCY[Dab]E[dDab]SWSVCS-NH2 / II: [Dab]T[Dap][Dab][Dab][dL]T[Dab][Dab]T; disulfide I:2-I:11; amide I:5-II:N; lactam II:4-II:C) | <1% | 0/3 died at 2 × 40 mg/kg | 0.125 µg/mL | 0.5 µg/mL (≈ 0.209 µM) | 0.0625 µg/mL | 0.0625 µg/mL | 0.25 µg/mL (≈ 0.105 µM) | 0.5 µg/mL (≈ 0.209 µM) | 0.25 µg/mL (≈ 0.105 µM) | 0.125 µg/mL
CC[C@@H]1NC(=O)[C@@H](CC(C)C)NC(=O)[C@H](CCN)NC(=O)[C@@H](NC(=O)[C@H](CCN)NC(=O)[C@@H](NC(=O)[C@H](CCN)NC(=O)CC[C@@H]2NC(=O)[C@H](CCN)NC(=O)[C@H](Cc3ccc(O)cc3)NC(=O)[C@@H](NC(=O)[C@@H](NC(C)=O)C(C)C)CSSC[C@@H](C(=O)N[C@@H](CO)C(N)=O)NC(=O)[C@H](C(C)C)NC(=O)[C@H](CO)NC(=O)[C@H](Cc3c[nH]c4ccccc34)NC(=O)[C@H](CO)NC(=O)[C@@H](CCN)NC2=O)[C@@H](C)O)CCNC(=O)[C@H]([C@@H](C)O)NC(=O)[C@H](CCN)NC(=O)[C@H](CCN)NC1=O [Ex. 332] (I: Ac-VCY[Dab]E[dDab]SWSVCS-NH2 / II: [Dab]T[Dab][Dab][Dab][dL][Abu][Dab][Dab]T; disulfide I:2-I:11; amide I:5-II:N; lactam II:4-II:C) | 2% | 0/3 died at 2 × 40 mg/kg | 0.0625 µg/mL | 0.25 µg/mL (≈ 0.105 µM) | 0.03125 µg/mL | 0.0625 µg/mL | 0.125 µg/mL (≈ 0.0524 µM) | 0.5 µg/mL (≈ 0.21 µM) | 0.25 µg/mL (≈ 0.105 µM) | 0.25 µg/mL
CC(=O)N[C@H](C(=O)N[C@H]1CSSC[C@@H](C(=O)N[C@@H](CO)C(N)=O)NC(=O)[C@H](C(C)C)NC(=O)[C@H](CO)NC(=O)[C@H](Cc2c[nH]c3ccccc23)NC(=O)[C@H](CO)NC(=O)[C@@H](CCN)NC(=O)[C@H](CCC(=O)N[C@@H](CCN)C(=O)N[C@H](C(=O)N[C@@H](CCN)C(=O)N[C@H]2CCNC(=O)[C@H]([C@@H](C)O)NC(=O)[C@H](CCN)NC(=O)[C@H](CCN)NC(=O)[C@H]([C@@H](C)O)NC(=O)[C@@H](CC(C)C)NC(=O)[C@H](CCN)NC2=O)[C@@H](C)O)NC(=O)[C@H](CCN)NC(=O)[C@H](Cc2ccc(O)cc2)NC1=O)C(C)C [Ex. 333] (I: Ac-VCY[Dab]E[dDab]SWSVCS-NH2 / II: [Dab]T[Dab][Dab][Dab][dL]T[Dab][Dab]T; disulfide I:2-I:11; amide I:5-II:N; lactam II:4-II:C) | 2% | 0/3 died at 2 × 40 mg/kg | 0.125 µg/mL | 0.5 µg/mL (≈ 0.208 µM) | 0.0625 µg/mL | 0.0625 µg/mL | 0.25 µg/mL (≈ 0.104 µM) | 1 µg/mL (≈ 0.417 µM) | 0.5 µg/mL (≈ 0.208 µM) | 0.25 µg/mL
CC(=O)N[C@H](C(=O)N[C@H]1CSSC[C@@H](C(=O)N[C@@H](CO)C(N)=O)NC(=O)[C@H](C(C)C)NC(=O)[C@H](CO)NC(=O)[C@H](Cc2c[nH]c3ccccc23)NC(=O)[C@H](CO)NC(=O)[C@@H](CCN)NC(=O)[C@H](CCC(=O)N[C@@H](CCN)C(=O)N[C@H](C(=O)N[C@@H](CCN)C(=O)N[C@H]2CCNC(=O)[C@H]([C@@H](C)O)NC(=O)[C@H](CCN)NC(=O)[C@H](CCN)NC(=O)[C@H](CC(C)C)NC(=O)[C@@H](CC(C)C)NC(=O)[C@H](CCN)NC2=O)[C@@H](C)O)NC(=O)[C@H](CCN)NC(=O)[C@H](Cc2ccc(O)cc2)NC1=O)C(C)C [Ex. 334] (I: Ac-VCY[Dab]E[dDab]SWSVCS-NH2 / II: [Dab]T[Dab][Dab][Dab][dL]L[Dab][Dab]T; disulfide I:2-I:11; amide I:5-II:N; lactam II:4-II:C) | <1% | 0/3 died at 2 × 40 mg/kg | 0.03125 µg/mL | 0.25 µg/mL (≈ 0.104 µM) | 0.03125 µg/mL | 0.0625 µg/mL | 0.125 µg/mL (≈ 0.0518 µM) | 0.25 µg/mL (≈ 0.104 µM) | 0.125 µg/mL (≈ 0.0518 µM) | 0.125 µg/mL
CC(=O)N[C@H](C(=O)N[C@H]1CSSC[C@@H](C(=O)N[C@@H](CO)C(N)=O)NC(=O)[C@H](C(C)C)NC(=O)CNC(=O)[C@H](Cc2c[nH]c3ccccc23)NC(=O)[C@H](CO)NC(=O)[C@@H](CCN)NC(=O)[C@H](CCC(=O)N[C@@H](CCN)C(=O)N[C@H](C(=O)N[C@@H](CN)C(=O)N[C@H]2CCNC(=O)[C@H]([C@@H](C)O)NC(=O)[C@H](CCN)NC(=O)[C@H](CCN)NC(=O)[C@H](CC(C)C)NC(=O)[C@@H](CC(C)C)NC(=O)[C@H](CCN)NC2=O)[C@@H](C)O)NC(=O)[C@H](CCN)NC(=O)[C@H](Cc2ccc(O)cc2)NC1=O)C(C)C [Ex. 335] (I: Ac-VCY[Dab]E[dDab]SWGVCS-NH2 / II: [Dab]T[Dap][Dab][Dab][dL]L[Dab][Dab]T; disulfide I:2-I:11; amide I:5-II:N; lactam II:4-II:C) | <1% | 0/3 died at 2 × 40 mg/kg | 0.0625 µg/mL | 0.25 µg/mL (≈ 0.106 µM) | 0.0625 µg/mL | 0.0625 µg/mL | 0.25 µg/mL (≈ 0.106 µM) | 0.5 µg/mL (≈ 0.211 µM) | 0.25 µg/mL (≈ 0.106 µM) | 0.125 µg/mL
CC(=O)N[C@H](C(=O)N[C@H]1CSSC[C@@H](C(=O)N[C@@H](CO)C(N)=O)NC(=O)[C@H](C(C)C)NC(=O)[C@H](CO)NC(=O)[C@H](Cc2c[nH]c3ccccc23)NC(=O)[C@H](CO)NC(=O)CNC(=O)[C@H](CCC(=O)N[C@@H](CCN)C(=O)N[C@H](C(=O)N[C@@H](CN)C(=O)N[C@H]2CCNC(=O)[C@H]([C@@H](C)O)NC(=O)[C@H](CCN)NC(=O)[C@H](CCN)NC(=O)[C@H](CC(C)C)NC(=O)[C@@H](CC(C)C)NC(=O)[C@H](CCN)NC2=O)[C@@H](C)O)NC(=O)[C@H](CCN)NC(=O)[C@H](Cc2ccc(O)cc2)NC1=O)C(C)C [Ex. 337] (I: Ac-VCY[Dab]EGSWSVCS-NH2 / II: [Dab]T[Dap][Dab][Dab][dL]L[Dab][Dab]T; disulfide I:2-I:11; amide I:5-II:N; lactam II:4-II:C) | 2% | 0/3 died at 2 × 40 mg/kg | 0.125 µg/mL | 1 µg/mL (≈ 0.424 µM) | 0.0625 µg/mL | 0.125 µg/mL | 0.25 µg/mL (≈ 0.106 µM) | 2 µg/mL (≈ 0.849 µM) | 0.25 µg/mL (≈ 0.106 µM) | 0.25 µg/mL

Source: US11629171B2, “Beta-hairpin peptidomimetics” (POLYPHOR AG, priority 2017, dated 2023)
